Source: patent US9809622B2, “Tumor-targeting polypeptide and application thereof” (Sun Yat-sen University Cancer Center, priority 2013, dated 2017)
Positions of bridges follow the written chain, without caps; N, C: chain ends. Non-standard residues stand in square brackets, D forms with d. Residues, ends and D or L forms follow the SMILES beside them. No end group written: not given here. *: point of attachment. Biotin = O=C1N[C@H]2[C@H](CS[C@H]2CCCCC(=O)*)N1

Experiments:
5-8F = assay: Apoptosis by Cleaved Caspase 3/7 kit, flow cytometry; assay type: cell-based; conditions: FIG. 6B
Method: (§1) Therapeutic effects of 35-AP peptide were assessed by Cleaved Caspase 3/7 kit. Detailed steps were as followed: • 1) After the cells were planked for 24 hours, the peptide dissolved by 1640 was incubated with cells at 37° C. for four hours; • 2) Trypsinizing cells with TrypLE Expression, counting and adjusting the concentration to 1.0*10^6 cells/ml, and transferring 300 μl into flow cytometry tube; • 3) Adding 10 μl 30*FLICA working solution; • 4) Incubating the cells at 37° C. with 5% CO2 for one hour, and mixing once every 15 minutes; • 5) Washing with 2 ml Washing buffer, then centrifuging at 400 g force for 5 minutes; • 6) Re-suspending the precipitate with 1 ml Washing buffer; • 7) Detecting the staining signal using flow cytometer.

CNE1 = assay: as above; assay type: cell-based; conditions: FIG. 6B
Method: as §1

CNE2 [1] = assay: as above; assay type: cell-based; conditions: FIG. 6A
Method: as §1

HONE1 = assay: as above; assay type: cell-based; conditions: FIG. 6B
Method: as §1

SUNE1 = assay: as above; assay type: cell-based; conditions: FIG. 6B
Method: as §1

CNE2 [2] = assay: Cleaved Caspase3 cellular immunofluorescence assay; assay type: cell-based; conditions: incubated with CNE2; FIG. 6C
CNE2 cells [3] = assay: Therapeutic effect of 35-AP peptide in tumor-bearing mice; assay type: in vivo, BALB/C nude mice; conditions: 200 μg intravenously every other day 6 times, compared with two control groups, FIG. 6E
Method: Injecting 35-AP peptide to tumor-bearing mice to detect its therapeutic effect. Detailed steps were as follows: • 1) Selecting twenty four 4-week-old BALB/C nude mice; • 2) Trypsinizing CNE2 cells, counting and adjusting the concentration to 1.0*10^6 cells/ml, and re-suspending cells with 200 μl RPMI 1640 medium containing 20% Matrigel, then subcutaneously injecting 200 μl re-suspended cells into the nude mice; • 3) Observing and measuring the size of tumor after 1-2 weeks. Based on the tumor size, the mice were randomly divided into three groups (PBS, Control AP and 35-AP); • 4) Intravenously injecting 200 μl PBS or 200 μg fluorescence peptide dissolved in 200 μl PBS every other day for 6 times in total. Measuring the length and width of tumor before and after injection. The volume of tumor=0.52*(length*width*width); • 5) Performing statistical analysis of the size of tumors.

CNE2 cells [4] = conditions: 37° C. two hours
Method: The cellular immunofluorescence assay was applied to detect whether Biotin-35 peptide can penetrate CNE2 cells. Detailed steps were as followed: • 1) Incubating Biotin-35 peptide or Biotin-control peptide with cells at 37° C. for two hours; • 2) Washing three times with 1 ml PBS for 5 minutes; • 3) Fixing the cells with 4% paraformaldehyde for 10 minutes; • 4) Incubating cells with 0.1% Triton-X100 for 5 minutes; • 5) Blocking with 5% BSA for 30 minutes; • 6) Washing with 1 ml PBS twice; • 7) Adding FITC-streptavidin and avoiding light for one hour; • 8) Washing three times with 1 ml PBS for 5 minutes; • 9) Adding DAPI at a ratio of 1:2000 and keeping it away from light at room temperature for 5 minutes, • 10) Washing with 1 ml PBS for 5 minutes, • 11) Mounting samples with Anti-fade, and observing the samples under the laser confocal microscope.

[5] = system: nasopharyngeal carcinoma cell line, CNE2; assay: Blocking test in phage counting assay (35 peptide blocks phage 35 binding); assay type: cell-based; conditions: FIG. 1B
Method: The phage counting assay was conducted to first test the binding ability of phage 35 to nasopharyngeal carcinoma cell line, CNE2 and then test whether the 35 peptide can block the binding of the phage 35 to CNE2. The process will be described in detail hereinafter. • 1) Trypsinizing cells, counting to obtain 1.0*10^6 cells/tube, and re-suspending cells with 200 μl RPMI (Roswell Park Memorial Institute) 1640 medium; • 2) For the blocking test, adding the 35 peptide at a corresponding concentration and incubating on ice for 30 minutes (the binding assay skips this step and directly goes to the third step); • 3) Adding 1.0*10^8 phages, and incubating on ice for binding for one hour; • 4) After washing with 1 ml PBS (Phosphate Buffered Saline), the resulting products were centrifuged at 400 g force for 5 min; repeating this step three times; • 5) Re-suspending the precipitate with 1 ml TBS (Tris Buffered Saline), diluting the resulting suspension liquid 10^3-10^4 fold, and only taking 100 μl for phage count assay; • 6) Inoculating BL21 competent cell for T7 phage with 1:100 v/v, then shaking at 200 RPM at 37° C. for four hours until OD600 (Optical Density at a wavelength of 600 nm) reaches 0.5-1.0 when the bacteria are on the logarithmic phase. […] The titer of phage was calculated based on the diluted factors.

[6] = system: nasopharyngeal carcinoma cell CNE2; assay: Flow cytometry analysis of binding of Cy5-35 peptide; assay type: cell-based; conditions: 5 μM or 10 μM, on ice 30 minutes; FIG. 1C
Method: Flow cytometry analysis was applied to detect the binding affinity of Cy5-35 peptide to nasopharyngeal carcinoma cell CNE2. Firstly, the 35 peptide and control peptides separately coupled with fluorescent dye Cy5 were synthesized. Then, Cy5-35 peptide were incubated with cells. At the end, the binding efficacy was calculated using the flow cytometry analysis. Detailed steps were as followed: • 1) Trypsinizing cells, counting and adjusting the concentration to 1.0*10^6 cells/tube, and re-suspending cells with 200 μl RPMI 1640 medium; • 2) Adding Cy5-Control peptide or Cy5-35 peptide dissolved with PBS at a concentration of 5 μM or 10 μM, then incubating on ice for 30 minutes. • 3) Washing with 1 ml PBS, then centrifuging at 400 g force for 5 minutes; repeating this step twice; • 4) Re-suspending the precipitate with 1 ml TBS, • 5) Conducting the flow cytometry analysis.

[7] = system: nasopharyngeal carcinoma cells CNE2; assay: Flow cytometry analysis of cell penetration; assay type: cell-based; conditions: 37° C. two hours; FIG. 2B
Text: The flow cytometry analysis was applied to detect whether phage 35 can penetrate the nasopharyngeal carcinoma cells CNE2.

[8] = system: tumor vessels and tumor cells; assay: Targeting and penetrating tumor vessels and tumor cells, frozen section and immunohistochemical assay; assay type: in vivo, BALB/C nude mice; conditions: 300 μg
Method: Cy5-35 peptide is tested to target and penetrate the vessels using the frozen section and immunohistochemical assay. Detailed steps were as followed: • 1) Using nine 4-week-old BALB/C nude mice • 2) Trypsinizing cells, counting and adjusting the concentration to 1.0*10^6 cells/ml, and re-suspending cells with 200 μl RPMI 1640 medium containing 20% Matrigel, then subcutaneously injecting into the nude mice; • 3) Observing and measuring the size of tumor after 1-2 weeks. Based on the tumor size, the mice were randomly divided into three groups (PBS, Cy5-Control and Cy5-35, three mice in each group); • 4) Intravenously injecting 200 μl PBS or 300 μg fluorescence peptide dissolved in 200 μl PBS; • 5) Obtaining the tumor tissues, and making frozen sections and cutting slides, storing at −80° C.; • 6) Fixing the slides in cooled acetone for 10 min, washing 5 times with PBS for 5 minutes; • 7) Soaking the slides with 3% H2O2 to remove endogenous peroxidase and then washing 3 times with 1 ml PBS for 5 minutes; • 8) Blocking with 10% BSA for 20 minutes at room temperature; • 9) Incubating with anti-CD31 mouse first antibody at 4° C. overnight; • 10) Washing 3 times with PBS for 5 minutes; • 11) Incubating anti-mouse FITC second antibody at room temperature for one hour, keeping it away from light, and then washing 3 times with 1 ml PBS for 5 min; • 12) Adding DAPI at room temperature and keeping for 5 minutes and then washing 3 times with 1 ml PBS for 5 minutes; • 13) Covering the slides with anti-fade, then observing the slides under the laser confocal microscope

nasopharyngeal carcinoma = assay: Near-infrared fluorescence imaging of tumor, small animal imaging; assay type: in vivo, BALB/C nude mice; conditions: 24 hours after intravenous injection
Method: (§2) Cy5-35 peptide distribution was examined in the different organs and tumors of nude mice. Small animal imaging assay was operated as followed: • 1) Using nine 4-week-old BALB/C nude mice; • 2) Trypsinizing cells, counting and adjusting the concentration to 1.0*10^6 cells/ml, and re-suspending cells with 200 μl RPMI 1640 medium containing 20% Matrigel, then subcutaneously injecting into the nude mice; • 3) Observing and measuring the size of tumor after 1-2 weeks. Based on the tumor size, the mice were randomly divided into three groups (PBS, Cy5-Control and Cy5-35, 3 mice in each group); • 4) Intravenously injecting 200 μl PBS or 300 μg fluorescence peptide dissolved in 200 μl PBS; the peptide distribution is detected in both normal organs and tumor using Caliper IVIS Lumina II; • 5) Obtaining normal organs and the tumor tissues, homogenizing them, and calculating the fluorescence intensity of normal organs and the tumor for statistical analysis.

MDA-MB-231 = assay: Near-infrared fluorescence imaging in MDA-MB-231 nude mice model; assay type: in vivo; conditions: FIG. 4D
Method: as §2
To detect whether Cy5-35 peptide can apply to other tumors, the peptides were applied to MDA-MB-231 nude mice model.

[9] = 2 h after intravenous injection, FIG. 3B

**Q.** How did the “cell apoptosis in 5-8F” value (5-8F) turn out when `CC(C)C[C@@H](NC(=O)[C@H](N)CCCCN)C(=O)N[C@H](C)C(=O)N[C@H](CCCCN)C(=O)N[C@H](CC(C)C)C(=O)N[C@H](C)C(=O)N[C@H](CCCCN)C(=O)N[C@H](CCCCN)C(=O)N[C@H](CC(C)C)C(=O)N[C@H](C)C(=O)N[C@H](CCCCN)C(=O)N[C@H](CC(C)C)C(=O)N[C@H](C)C(=O)N[C@H](CCCCN)C(=O)NCC(=O)NCC(=O)N[C@H]1CSSC[C@@H](C(=O)O)NC(=O)[C@H](C)NC(=O)[C@H](CC(N)=O)NC(=O)[C@H](CCC(=O)O)NC(=O)[C@H](CC(=O)O)NC(=O)[C@H](Cc2ccc(O)cc2)NC(=O)[C@H](Cc2c[nH]c3ccccc23)NC(=O)[C@H](CCCNC(=N)N)NC1=O` [35-AP peptide, D (KLAKLAKKLAKLAK)-GG-CRWYDENAC] (H-[dK][dL][dA][dK][dL][dA][dK][dK][dL][dA][dK][dL][dA][dK]GGCRWYDENAC-OH; disulfide 17-25 (inferred); N-terminus and C-terminus assumed) was run?
**A.** also led to cell apoptosis

**Q.** And the “cell apoptosis in CNE1” value (CNE1)?
**A.** also led to cell apoptosis

**Q.** What about the “apoptosis in CNE2” value (CNE2 [1]) of the same compound?
**A.** can significantly promote the apoptosis

**Q.** And the “cell apoptosis in HONE1” value (HONE1)?
**A.** also led to cell apoptosis

**Q.** What about the “cell apoptosis in SUNE1” value (SUNE1) of the same compound?
**A.** also led to cell apoptosis

**Q.** And the “cleaved Caspase3 activation” value (CNE2 [2])?
**A.** cleaved Caspase3 was activated

**Q.** And the tumor volume (CNE2 cells [3])?
**A.** reduced the tumor volume markedly

**Q.** How did the “penetration into CNE2 (cellular immunofluorescence)” value (CNE2 cells [4]) turn out when “Biotin-CRWYDENAC (cysteine pairing not given here) [Biotin-35 peptide]” was run?
**A.** is able to penetrate into CNE2

**Q.** Which “blocking of phage 35 binding to CNE2” value [5] does the source give for CRWYDENAC (disulfide 1-9) [35 peptide] here?
**A.** prevents phage 35 from binding to CNE2 in a dose-dependent manner

**Q.** What about the “apoptosis in CNE2” value (CNE2 [1]) of the same compound?
**A.** cannot induce the apoptosis in CNE2

**Q.** How did the “binding to CNE2 cells (flow cytometry)” value [6] turn out when “Cy5-CRWYDENAC (disulfide 1-9) [Cy5-35 peptide]” was run?
**A.** binds to CNE2 cells in a dose-dependent manner

**Q.** And the “penetration into CNE2 (flow cytometry)” value [7]?
**A.** penetrates into CNE2 in a dose-dependent manner

**Q.** And the “co-localization with vessel marker CD31 in tumor” value [8, 9]?
**A.** co-localized with vessel marker CD31

**Q.** And the “penetration of tumor vessels and tumor cells” value [8, 9]?
**A.** part of Cy5-35 peptides penetrated the tumor vessels and tumor cells

**Q.** And the “co-localization with vessel marker CD31 in tumor” value ([8]; half an hour after intravenous injection, FIG. 3A)?
**A.** co-localized with vessel marker CD31

**Q.** And the “enrichment in tumor (NIR imaging)” value (nasopharyngeal carcinoma; FIG. 4A)?
**A.** significantly enriched in tumor

**Q.** And the “residual peptide in lung (NIR imaging)” value (nasopharyngeal carcinoma; FIG. 4B)?
**A.** certain residual peptides in lung

**Q.** What about the “intensity of fluorescence in tumor versus other organs” value (nasopharyngeal carcinoma; FIG. 4C) of the same compound?
**A.** significantly stronger than that in other organs

**Q.** What about the breast cancer imaging (MDA-MB-231) of the same compound?
**A.** can also be applied in breast cancer imaging

**Q.** “D (KLAKLAKKLAKLAK) (D-amino acids) [AP peptide, reference compound]” was tested. Which “apoptosis in CNE2” value (CNE2 [1]) did it give?
**A.** cannot induce the apoptosis in CNE2

**Q.** With “D (KLAKLAKKLAKLAK-GG-CRWYDENAC) (KLAKLAKKLAKLAKGGCRWYDENAC; D-amino acids) [(35-AP)D]” as the compound, how does the “apoptosis in CNE2” value (CNE2 [1]) read?
**A.** also activated the apoptosis of CNE2
